In patent publication US12357553B2, “Composition for treating hair loss or promoting hair growth, comprising piperonylic acid” (HESED BIO CO., LTD., priority 2017, dated 2025):

How the values were obtained:
ERK = ERK activation (phosphorylation) in HaCaT cells, Western blotting; format: cell-based
Method: (§1) It is well known that the activation of extracellular signal-regulated kinase (ERK) and protein kinase B (AKT) are induced by the EGFR activation and transmit signals required for cell growth and survival. Accordingly, as the activation of EGFR by piperonylic acid was verified in Examples 2 and 3, it was determined whether ERK and AKT, the downstream of EGFR, were also activated by piperonylic acid. Specifically, after HaCaT cells were cultured in a serum-free medium, the cells were treated with piperonylic acid at 0, 25, and 100 μM, and then ERK and AKT, which were activated when phsphorylated, were analyzed by Western blotting method. As antibodies, phosphor-site specific antibodies which are labeling factors of activated ERK and AKT and antibodies that measure total ERK and AKT were used, and GAPDH expressed from a housekeeping gene was measured in order to correct the amount of total proteins between lanes.
(§2) Subsequently, in order to confirm the pattern of ERK and AKT activities by piperonylic acid treatment over time, HaCaT cells cultured in a serum-free medium were treated with piperonylic acid, and then the activity pattern over time was analyzed.
(§3) In order to verify that the activation of ERK and AKT by piperonylic acid were induced by EGFR, the activity of EGFR was suppressed by treating cells with tyrphostin AG1478 which is an EGFR antagonist, and then the activities of ERK and AKT by piperonylic acid were analyzed.

AKT = AKT activation (phosphorylation) in HaCaT cells, Western blotting; format: cell-based
Method: as §1, §2, §3

[1] = test system: c-myc, c-jun, c-fos, and egr-1 genes; assay: Change in gene expression in HaCaT cells (real-time quantitative PCR, Western blotting); format: cell-based
Text: Signaling by EGFR induces gene expression that is important for cell growth and survival via important signaling mediator proteins which are ERK and AKT. It is well known that c-myc, c-jun, c-fos, and egr-1 genes are genes which are regulated by EGFR and promote cell growth and survival. […] Specifically, a Tri-reagent was used for mRNA extraction, cDNA was made by a reverse transcription polymerase chain reaction (RT-PCR) using a poly-A primer and a reverse transcriptase, and the amount of each mRNA was measured using real-time quantitative PCR. The amount of each mRNA was corrected with the amount of β-actin which is a housekeeping gene.

HaCaT cells [2] = assay: Wound healing assay in keratinocytes; format: cell-based; details: 50 μM and 100 μM, culturing for 3 days, vs negative control
Method: Further, the cell growth promotion efficacy by piperonylic acid was confirmed through a wound healing assay. Specifically, after HaCaT cells were cultured fully on a 12-well plate, a wound area was formed using a yellow tip, and the cells were treated with piperonylic acid at 50 μM and 100 μM after exchanging the medium with a serum-free medium.

HaCaT cells [3] = assay: Growth promotion of keratinocytes by CCK-8 assay; format: cell-based; details: 50 μM and 100 μM, 24 hours, serum-free, compared to the negative control
Method: Cell counting kit-8 (CCK-8) is a water-soluble tetrazolium salt reagent called WST-8, and forms orange water-soluble formazan by a dehydrogenase in the mitochondria of living cells. The absorbance of the orange wavelength at 450 nm as indicated by CCK-8 reflects the number of cells, and thus has been used to measure cell growth and proliferation. The growth promotion efficacy of keratinocytes, HaCaT cells, was measured by CCK-8 assay using non-cytotoxic piperonylic acid at a concentration of 50 μM and 100 μM. Specifically, after 1×10^4 HaCaT cells were cultured on a 96-well plate for 24 hours, growth factors in the medium were removed by exchanging the medium with a serum-free medium, and then the cells were treated with piperonylic acid. […] After the cells were cultured for 24 hours, the cell growth was analyzed by treating the cells with CCK8 and measuring the absorbance at 450 nm.

HaCaT cells [4] = assay: Cytotoxicity by MTT in HaCaT keratinocytes; format: cell-based
Method: The cytotoxicity of piperonylic acid was measured using HaCaT cells which are keratinocytes. When cells are treated with a yellow water-soluble substrate MTT tetrazolium, the substrate is reduced to MTT formazan by mitochondrial enzymes and the color changes to blue-violet. Since the more living cells there are, the darker the blue-violet color appears, the blue-violet absorbance at 540 nm reflects the concentration of living cells. Specifically, after cells were cultured fully in each well of a 96-well plate, cells were treated with piperonylic acid at a concentration of 0, 25, 50, 100, 250, and 500 μM and cultured at 37° C. in a 5% CO2 incubator for 24 hours and 48 hours, and then the viability of cells was measured by an MTT reagent. A control (0 μM) that had not been treated with piperonylic acid was treated with an equal amount of solvent, DMSO.

[5] = test system: dermal papilla cells related to androgenic alopecia; assay: Proliferation of dermal papilla cells related to androgenic alopecia by MTT; format: cell-based, human; details: 50 μM, 24 hours, serum-free, vs DMSO
Text: The dermal papilla cells related to androgenic alopecia used in the experiment were a cell line that was immortalized by inserting hTERT and SV40-Tag into dermal papilla cells (DPCs, passage 1) derived from male androgenic alopecia patients, and purchased from Epibiotech Co., Ltd. and used. The proliferation of dermal papilla cells was confirmed using MTT tetrazolium. MTT tetrazolium is reduced to MTT formazan by intracellular mitochondrial enzymes, and at this time, the yellow color turns blue violet. The more cells there are, the stronger the reduction, so a stronger blue violet color appears, and the concentration of living cells is measured by measuring the absorbance of the blue violet color at 540 nm. Specifically, 1×10^4 cells are aliquoted into 96-well cell culture plates and cultured for 24 hours. Thereafter, a serum-free medium was treated with 50 μM piperonylic acid, and then cultured for 24 hours. Then, after the cells were treated with the MTT reagent for 2 hours, cell growth was analyzed by adding DMSO thereto and confirming the color development at […]. A solvent DMSO was used as a negative control.

EGFR [6] = target: T1, EGFR (Homo sapiens, UniProt P00533); assay: EGFP-SH2 biosensor system measuring EGFR activation (internalization) in A549 cells; format: cell-based; details: 100 μM, compared to DMSO control
Method: Using these characteristics, a biosensor system was manufactured such that EGFR internalization by the EGFR activation could be measured by a fluorescent protein. Specifically, an EGFP-SH2 vector was manufactured by removing only the SH2 domain of Grb2 and inserted it in an enhanced green fluorescent protein (EGFP) vector using recombinant DNA technology, and then introduced it into A549 cells for expression.
After being cultured in a serum-free medium for 24 hours, the cells were treated with piperonylic acid.

EGFR [7] = target: T1, EGFR; assay: Pull-down of EGFR from HaCaT cell lysate with piperonylic acid-conjugated Sepharose 4B bead, Western blotting; format: binding; parameters: endogenous in cells; host or cells: HaCaT cells; details: 100 μM of free piperonylic acid added with the cell lysate
Method: In order to investigate the mechanism of EGFR activation by piperonylic acid confirmed in Example 2, it was confirmed in the present example whether piperonylic acid could interact with EGFR. For this purpose, piperonylic acid-4B bead was manufactured by conjugating piperonylic acid to a Cyanogen bromide-activated-Sepharose 4B bead purchased from Sigma-Aldrich. Equal amounts of HaCaT cell lysates were incubated with piperonylic acid-4B bead and control-4B used as the control, and proteins bound to the bead were analyzed by the Western blotting method. An anti-EGFR antibody was used in order to measure EGFR among the precipitated proteins, and anti-Actin and anti-GAPDH antibodies against actin and GAPDH proteins present in large amounts as housekeeping genes were used in order to support that the binding to piperonylic acid was selective.

cyclin D = assay: Cyclin D protein level in dermal papilla cells, western blotting; format: cell-based, human; details: 25 and 50 μM, 24 hours, compared to the control
Method: In addition, in order to investigate a gene expression pattern involved in the proliferation of dermal papilla cells related to androgenic alopecia, the human dermal papilla cells were cultured in a serum-free medium for 24 hours, and then treated with 25 and 50 μM piperonylic acid, respectively. The cells were treated with a drug, and after 24 hours, the levels of cyclin D were analyzed by the western blotting method. As an antibody, GAPDH, which is always expressed constantly, was used to correct the total protein amount between the cyclin D antibody and each lane. A solvent DMSO was used as a negative control.

[8] = test system: dermal papilla cells related to androgenic alopecia; assay: Scratch (yellow tip) proliferation assay in dermal papilla cells related to androgenic alopecia; format: cell-based, human; details: 100 μM, 24 hours and 48 hours, serum-free, vs DMSO
Text: Meanwhile, in order to investigate the proliferation pattern of dermal papilla cells related to androgenic alopecia during treatment with piperonylic acid, a 12-well cell culture plate was fully filled with the dermal papilla cells, and the cells were injured using a yellow tip. […] A solvent DMSO was used as a negative control.

HaCaT cells [9] = assay: Resistance to UVB-induced cell damage, cell viability by CCK-8; format: cell-based; details: UVB at 25 mJ/cm^2, 100 μM; negative control 84%
Method: Among the ultraviolet wavelengths, the UVB wavelength corresponding to 280 to 315 nm penetrates the epidermal layer where many keratinocytes are present to cause cell damage. […] The solvent DMSO was used as a negative control, and cell viability was measured using the CCK-8 method used in Example 7.

EGFR [10] = target: T1, EGFR; assay: Tyrosine phosphorylation of EGFR in HaCaT cells (immunoprecipitation, Western blotting); format: cell-based; parameters: endogenous in cells; host or cells: HaCaT cells; details: 100 μM for 10 minutes, compared to DMSO
Method: In order to confirm whether the binding of piperonylic acid with EGFR directly induces the EGFR activation, HaCaT cells cultured in a serum-free medium were treated with piperonylic acid at a concentration of 100 μM for 10 minutes, and then the activation was measured through an increasing tyrosine phosphorylation of EGFR. Specifically, after only EGFR was precipitated from 500 μg of cell lysate by immunoprecipitation using anti-EGFR antibody and protein-G agarose beads, the level of tyrosine phosphorylation was analyzed by Western blotting method.

[11] = AG1478 at 200 nM for 10 minutes, then piperonylic acid
[12] = 100 μM, 10 minutes, compared to the control
[13] = piperonylic acid treatment, serum-free medium

T1 sequence (P00533 25-1210): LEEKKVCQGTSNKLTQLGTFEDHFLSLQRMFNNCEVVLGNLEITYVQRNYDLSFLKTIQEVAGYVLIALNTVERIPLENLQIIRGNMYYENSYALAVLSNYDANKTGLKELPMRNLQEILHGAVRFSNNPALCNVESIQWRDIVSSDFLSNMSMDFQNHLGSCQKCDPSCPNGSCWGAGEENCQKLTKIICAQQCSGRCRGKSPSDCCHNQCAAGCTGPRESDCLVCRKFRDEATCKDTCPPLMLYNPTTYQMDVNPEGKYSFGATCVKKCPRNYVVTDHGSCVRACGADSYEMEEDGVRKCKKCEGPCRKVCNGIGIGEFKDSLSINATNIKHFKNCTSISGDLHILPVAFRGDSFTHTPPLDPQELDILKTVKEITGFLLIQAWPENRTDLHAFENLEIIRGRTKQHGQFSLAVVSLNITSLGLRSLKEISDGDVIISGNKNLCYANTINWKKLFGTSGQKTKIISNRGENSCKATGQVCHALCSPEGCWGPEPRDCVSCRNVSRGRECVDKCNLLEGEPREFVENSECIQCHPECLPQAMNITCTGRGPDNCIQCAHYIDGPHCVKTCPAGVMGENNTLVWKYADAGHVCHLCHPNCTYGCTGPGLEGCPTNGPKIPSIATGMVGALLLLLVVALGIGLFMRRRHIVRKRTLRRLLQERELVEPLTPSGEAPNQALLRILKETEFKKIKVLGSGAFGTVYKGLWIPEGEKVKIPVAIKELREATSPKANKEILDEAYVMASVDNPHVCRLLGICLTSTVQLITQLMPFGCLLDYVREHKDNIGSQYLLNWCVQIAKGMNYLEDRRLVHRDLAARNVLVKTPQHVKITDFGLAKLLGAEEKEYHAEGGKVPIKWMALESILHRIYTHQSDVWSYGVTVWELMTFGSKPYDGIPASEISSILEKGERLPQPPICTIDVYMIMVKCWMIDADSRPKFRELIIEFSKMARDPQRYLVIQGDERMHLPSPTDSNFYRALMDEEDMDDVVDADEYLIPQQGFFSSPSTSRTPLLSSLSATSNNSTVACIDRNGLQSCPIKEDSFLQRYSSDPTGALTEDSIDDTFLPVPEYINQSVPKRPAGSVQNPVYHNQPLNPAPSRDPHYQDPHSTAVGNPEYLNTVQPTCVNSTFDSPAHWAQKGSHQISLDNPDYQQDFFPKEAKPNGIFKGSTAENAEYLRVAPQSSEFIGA

Row | Structure (SMILES) | ERK activation by piperonylic acid after EGFR antagonist (ERK; [11]) | AKT activation by piperonylic acid after EGFR antagonist (AKT; [11]) | gene expression of c-fos and egr-1 increased by piperonylic acid ([1]; AG1478 pre-treatment, piperonylic acid at 100 μM, 2 hours) | filling of wound area (HaCaT cells [2]) | cell growth and proliferation (CCK-8) (HaCaT cells [3]) | ERK activation (ERK; [12]) [fold] | pattern of ERK activity over time (ERK; [13]) | cytotoxicity to keratinocytes (HaCaT cells [4]; 0-500 μM, 24 and 48 hours) | difference in cell viability from control (HaCaT cells [4]; 500 μM for 48 hours) | cell proliferation of dermal papilla cells (MTT) [5] | EGFR activation in biosensor system (change in fluorescence signal) (EGFR [6]) | amount of EGFR bound to bead under competition (EGFR [7]) | expression of cyclin D protein (cyclin D) | AKT activation (AKT; [12]) [fold] | pattern of AKT activity over time (AKT; [13]) | cell proliferation of dermal papilla cells (scratch) [8] | expression of Egr-1 and c-Fos proteins ([1]; 100 μM) | mRNA expression of c-jun ([1]; 100 μM, 0, 1, 2, and 6 hours) | cells survived after UVB (HaCaT cells [9]) [%] | tyrosine phosphorylation of EGFR (EGFR [10]) [fold]
1 | COc1cc2ncnc(Nc3cccc(Cl)c3)c2cc1OC [AG1478, tyrphostin AG1478, reference compound] | not activated | not activated | completely suppressed |  |  |  |  |  |  |  |  |  |  |  |  |  |  |  |  | 
2 | O=C(O)c1ccc2c(c1)OCO2 [piperonylic acid] |  |  |  | more rapidly filled | significantly increased | 3.3 | rapidly induced for 5 to 10 minutes | very low | about 10% | promoted cell proliferation | EGFR was activated | the amount of EGFR bound thereto was reduced | significantly increased | 2.1 | rapidly induced for 5 to 10 minutes | promoted cell proliferation | increase in expression | increasing tendency | 89 | 1.8
